Results published in paper PMC3008316 (Antiviral research, 2009).
Read-outs that look alike come from different tables or passages of the source. Marks after values point to notes of the source that are not given here.

Assays:
[1] = system: PTV, Adames strain; parameters: species or system Syrian hamsters; details: hamster, in vivo
[2] = system: PTV, Adames strain; parameters: species or system C57BL/6 mice; details: mouse, in vivo
[3] = system: PICV, strain An 4763; type: in vivo, Syrian hamsters
[4] = system: phleboviruses (RVFV, PTV, SFNV); experiment: organism not typed; type: cell-based
[5] = system: RVFV vaccine strain MP-12
[6] = system: RVFV vaccine strain MP-12; remark: listed apart in the source
[7] = system: PTV, Adames strain
[8] = system: PTV, Adames strain; remark: listed apart in the source
[9] = system: Sandfly fever virus, Naples strain (SFNV)
[10] = system: Sandfly fever virus, Naples strain (SFNV); remark: listed apart in the source
[11] = system: Tacaribe virus (TCRV), strain TRVL 11573
[12] = system: Tacaribe virus (TCRV), strain TRVL 11573; remark: listed apart in the source
[13] = system: Junin virus (JUNV) vaccine strain Candid 1
[14] = system: Junin virus (JUNV) vaccine strain Candid 1; remark: listed apart in the source
[15] = system: PICV, strain An 4763
[16] = system: PICV, strain An 4763; remark: listed apart in the source
[17] = system: Vero cells; details: monkey
[18] = in vitro; details: monkey, CC50 ± SD
[19] = in vitro; details: monkey, CC50 ± SD; remark: listed apart in the source
[20] = system: RVFV vaccine strain MP-12; experiment: microbe, parasite or virus in culture; details: Rift Valley fever virus, Vero 76, read-out: EC50 ± SD (CPER)
[21] = system: RVFV vaccine strain MP-12; experiment: microbe, parasite or virus in culture; details: Rift Valley fever virus, Vero 76, read-out: EC90 ± SD (VYR)
[22] = system: PTV, Adames strain; experiment: microbe, parasite or virus in culture; details: Punta Toro virus, Vero 76, read-out: EC50 ± SD (CPER)
[23] = system: PTV, Adames strain; experiment: microbe, parasite or virus in culture; details: Punta Toro virus, Vero 76, read-out: EC90 ± SD (VYR)
[24] = system: Sandfly fever virus, Naples strain (SFNV); experiment: microbe, parasite or virus in culture; details: sandfly fever Sicilian virus, Vero 76, read-out: EC50 ± SD (CPER)
[25] = system: Sandfly fever virus, Naples strain (SFNV); experiment: microbe, parasite or virus in culture; details: sandfly fever Sicilian virus, Vero 76, read-out: EC90 ± SD (VYR)
[26] = system: Tacaribe virus (TCRV), strain TRVL 11573; experiment: microbe, parasite or virus in culture; details: Mammarenavirus tacaribeense, Vero 76, read-out: EC50 ± SD (CPER)
[27] = system: Tacaribe virus (TCRV), strain TRVL 11573; experiment: microbe, parasite or virus in culture; details: Mammarenavirus tacaribeense, Vero 76, read-out: EC90 ± SD (VYR)
[28] = system: Junin virus (JUNV) vaccine strain Candid 1; experiment: microbe, parasite or virus in culture; details: Mammarenavirus juninense, Vero, read-out: EC50 ± SD (CPER)
[29] = system: Junin virus (JUNV) vaccine strain Candid 1; experiment: microbe, parasite or virus in culture; details: Mammarenavirus juninense, Vero, read-out: EC90 ± SD (VYR)
[30] = system: PICV, strain An 4763; experiment: microbe, parasite or virus in culture; details: Pichinde virus, Vero, read-out: EC50 ± SD (CPER)
[31] = system: PICV, strain An 4763; experiment: microbe, parasite or virus in culture; details: Pichinde virus, Vero, read-out: EC90 ± SD (VYR)
[32] = hamster, in vivo, po, 25 mg/kg/day
[33] = hamster, in vivo, po, 50 mg/kg/day
[34] = hamster, in vivo, po, 100 mg/kg/day

## NC(=O)c1nc(F)cnc1O [T-705, 6-fluoro-3-hydroxy-2-pyrazinecarboxamide]
[1]
  ED50 (survival): 112 µmol/kg/day
  Mean virus titer ± SD, liver: < 3.9 ± 1.5 (40)
  Survival compared to placebo: significant protection
[1]; po, 25 mg/kg/day
  ALT ± SD: 820 ± 1148 international units per liter
  Mean virus titer ± SD, liver: < 5.9 ± 1.8 (80)
  Mean virus titer ± SD, serum: < 5.4 ± 3.4 (60)
  Percentage of animals with detectable virus, liver: < 5.9 ± 1.8 (80) %
  Percentage of animals with detectable virus, serum: < 5.4 ± 3.4 (60) %
[1]; po, 50 mg/kg/day
  ALT ± SD: 52 ± 79 international units per liter
  Mean virus titer ± SD, liver: < 3.6 ± 1.7 (40)
  Percentage of animals with detectable virus, liver: < 3.6 ± 1.7 (40) %
[1]; po, 100 mg/kg/day
  ALT ± SD: 38 ± 19 international units per liter
  Mean virus titer ± SD, serum: < 3.1 ± 1.9 (40)
  Percentage of animals with detectable virus, liver: < 3.9 ± 1.5 (40) %
  Percentage of animals with detectable virus, serum: < 3.1 ± 1.9 (40) %
[2]
  ED50 (survival): 159 µmol/kg/day
[3]; hamster, in vivo
  Potency relative to T-1106 based on ALT molar dose response: 2.6 fold
  Potency relative to T-1106 based on ED50: 6.1 times
  Survival compared to placebo: significantly protected
[3]; hamster, in vivo, po
  ED50 (survival): 72 µmol/kg/day
[3]; [32]
  ALT ± SD: 859 ± 782 international units per liter
  Mean virus titer ± SD, liver: 7.6 ± 0.8 (100)
  Mean virus titer ± SD, serum: 6.6 ± 1.0 (100)
  Percentage of animals with detectable virus, liver: 7.6 ± 0.8 (100) %
  Percentage of animals with detectable virus, serum: 6.6 ± 1.0 (100) %
[3]; [33]
  Mean virus titer ± SD, liver: 5.8 ± 1.1 (100)
  Mean virus titer ± SD, serum: < 3.8 ± 1.6 (80)
  Percentage of animals with detectable virus, liver: 5.8 ± 1.1 (100) %
  Percentage of animals with detectable virus, serum: < 3.8 ± 1.6 (80) %
[3]; [34]
  Mean virus titer ± SD, liver: < 3.3 ± 0.5 (60)
  Mean virus titer ± SD, serum: < 1.8 (0) ^**
  Percentage of animals with detectable virus, liver: < 3.3 ± 0.5 (60) %
  Percentage of animals with detectable virus, serum: < 1.8 (0) ^** %
[3]; n=10
  Survival outcome: complete protection
[3]; n=10, 25 mg/kg/day
  Animals protected (survival): 70%
[3]; n=10, 50 mg/kg/day
  Animals protected (survival): 80%
[4]
  Inhibitory concentrations, range: 3 to 55 µM
[4]; read-out: EC50 values, range (CPE reduction assay)
  EC50: 27 to 55 µM
[4]; read-out: EC90 values, range (VYR)
  EC90: 3 to 19 µM
[5]
  SI (CC50/EC50): >236
[6]
  SI (CC50/EC90): >530
[7]
  SI (CC50/EC50): >68
[8]
  SI (CC50/EC90): >197
[9]
  SI (CC50/EC50): 195
[10]
  SI (CC50/EC90): 1952
[11]
  SI (CC50/EC50): >187
[12]
  SI (CC50/EC90): >405
[13]
  SI (CC50/EC50): >285
[14]
  SI (CC50/EC90): >387
[15]
  SI (CC50/EC50): 194
[16]
  SI (CC50/EC90): 202
[17]
  CC50: 4860 ± 409 µM
[18]
  CC50: > 6360 µM
[19]
  CC50: > 5410 µM
[20]
  EC50: 27 ± 5 µM
[21]
  EC90: 12 ± 4 µM
[22]
  EC50: 55 ± 35 µM
[23]
  EC90: 19 ± 11 µM
[24]
  EC50: 30 ± 15 µM
[25]
  EC90: 3 ± 1 µM
[26]
  EC50: 26 ± 13 µM
[27]
  EC90: 12 ± 4 µM
[28]
  EC50: 19 ± 5 µM
[29]
  EC90: 14 ± 3 µM
[30]
  EC50: 25 ± 6 µM
[31]
  EC90: 24 ± 5 µM
